Earlier results, collected in patent US9714250B2, “Crystalline forms of temozolomide and the method for preparing same” (Jiangsu Tasly Diyi Pharmaceutical Co., Ltd., priority 2013, dated 2017).

Details: heated to approximately 30° C.; in US20050187206; cited from earlier work

## Cn1nnc2c(C(N)=O)ncn2c1=O [Form I, Temozolomide]
  Crystalline form transformation on heating: transformed into crystalline Form II
